# Source: US20070004680A1, “Compositions and methods for modulating gated ion channels” (PainCeptor Pharma Corporation, priority 2004, published 2007)
# System: Male Sprague-Dawley rats
# Assay: Formalin test (flinching behaviour)
# Assay type: in vivo, rat
# Details: 10 mg/kg i.v. 10 min prior to formalin in the hind limb; compared with vehicle; n=8
# Description: Male Sprague-Dawley rats (body weight, 180-300 g) are housed together in groups of four animals under standard conditions with unrestricted access to food and water. Rats are housed in the room in which the testing procedure is performed to minimize any stress response to novel environmental cues. All experiments are conducted according to the ethical guidelines for investigations of experimental pain in conscious animals (Zimmerman, 1983).
# Separate groups of rats are used for the different experiments such that each animal is used on one occasion only. All experiments for a given compound are performed using age matched animals in an attempt to avoid variability between experiments. Prior to initiation of the formalin test, 4 rats are habituated in separate testing cages for 15-20 min. […] On the basis of the response pattern, two distinct phases of nociceptive behavior are observed, characterized by flinching of the affected paw and scored (Blackburn-Munro et al., Eur J Pharmacol. 2002 Jun. 12;445(3):231-8). […]
# All data is analysed using Sigmastat 2.03 statistical software (Jandel Scientific GmbH, Germany) and expressed as mean±S.E.M. Two Way Repeated Measures Analysis of Variance (Two Way RM ANOVA) is used to analyse formalin test data and where applicable, this is followed by post-hoc analysis using Bonferroni's t-test to allow comparisons between groups. […]
smiles,measurement,value
C=CC1CN2CCC1CC2[C@@H](OC(=O)CCC1CCCC1)c1ccnc2ccccc12 (stereo partly shown) [Compound A],flinching behaviour in Formalin test,attenuated flinching behaviour
